The values that follow come from patent US20250122155A1, “NOVEL INDOLE DERIVATIVE, PHARMACEUTICAL COMPOSITION COMPRISING SAME, AND USE THEREOF” (MITOIMMUNE THERAPEUTICS INC., priority 2021, published 2025).

Like-named read-outs stand apart in the source and are kept apart here.

Series [1] in a line: Plasma and brain drug concentration after oral administration (HPLC-MS/MS). The series is classed as in vivo. The procedure:
[…] parameters can be represented as maximum concentration in plasma (Cmax), time taken until maximum concentration in plasma (Tmax), area under the plasma concentration-time curve (AUClast and AUCinf), and half-life (t1/2), and the like.
The compound of Example 2 was orally administered to ICR mice at a dose of 10 mg/kg, and drug concentration in mouse plasma was measured using HPLC-MS/MS spectroscopy at 0.5, 1, 2, 4, 8 and 24 hours. The mouse brains were removed at 2 or 24 hours, and drug concentration in the brain was measured using HPLC-MS/MS spectroscopy. The area under the plasma concentration v. time curve (AUCinf) was measured to be […], and at 2 hours after administration drug concentration in plasma was 398 ng/mL and brain drug concentration was measured at 683 ng/mL. […] Further, at 24 hours after administration, for Example 2, drug concentration in plasma was measured to be 5.6 ng/mL and drug concentration in the brain was measured at 11.4 ng/mL. With the brain-plasma drug concentration ratio at 2.04, drug exposure in the brain was still high.
The Comparative Example compound was orally administered to ICR mice at a dose of 10 mg/kg, and drug concentration in mouse plasma was measured using HPLC-MS/MS spectroscopy at 0.5, 1, 2, 4, 8 and 24 hours. The mouse brains were removed at 2 or 24 hours, and drug concentration in the brain was measured using HPLC-MS/MS spectroscopy.

Series [2] has as its system H9C2 cells. In words: Maintenance of intracellular calcium level in heart cells treated with t-BHP (FLIPR Calcium 6). The series is classed as cell-based, rat. As to conditions: H9C2, t-BHP 150 μM. Here is the method:
To examine the maintenance effect on calcium level in heart cells, H9C2 cells were divided into a 96-well plate at 1.5×10^4 cells/well and cultured for 24 hours. To measure intracellular calcium level, a FLIPR Calcium 6 assay kit (Molecular devices; #R8190) was used. Following the experimental method provided by the manufacturer, cells were treated with probenecid and calcium-sensitive dye for 1.75 hours, and then the cells were treated with the compound of Example 2 for 0.25 hours (the final concentration of the compound was 0.02 or 0.01 μM). And the cells were treated with t-BHP to a final concentration of 150 μM, then intracellular calcium level was measured every 30 seconds in real time.
FIG. 1 is a graph regarding the regulatory effect of the compound of Example 2 on calcium level under t-BHP treatment. The ΔF/F(Max−Min) value on the vertical axis is the difference between the maximum and minimum fluorescence intensity values of the calcium-sensitive dye after treatment with t-BHP (150 μM), and this value increases as intracellular calcium level increases.

In series [3] the test system is H9C2 cells. As to the kind of experiment: Protective effect on heart cells against t-BHP (LDH release). The series is classed as cell-based. The settings on record: H9C2, t-BHP 400 μM, 2 hours, read-out: EC50 (μM), Cell Protection Effect against t-BHP in Heart Cells. The procedure:
In order to identify the protective effect with regard to heart cells, H9C2 cells were divided into 96-well plates by 1.5×10^4, and cultured for 24 hours. The respective wells were treated with compounds of the examples 3× serial diluted to final concentrations of 30, 10, 3, 1, 0.3, 0.1, 0.03 and 0.01 μM, then incubated for 15 to 20 minutes. After treating with t-BHP with a final concentration of 400 μM, incubation was performed for 2 hours. To confirm the protective effect of each compound, a Cytotoxicity LDH assay kit [Dojindo; CK12] was used to measure the degree of extracellular secretion of LDH. After 2-hour treatment of the cells with t-BHP was completed, 100 μL each of the supernatant in which the cells were placed was collected and moved to a new 96-well plate. 100 μL/well of the assay buffer included in the kit (same amount as the sample) was added, followed by wrapping with foil and reacting for 30 minutes at room temperature. Observing the change of color in the sample, 50 μL/well of stop solution was added, then an iD3 spectrometer was used to measure absorbance at 490 nm and calculate the EC50 values. The EC50 of the compounds of the examples is preferably no more than 1.0 μM, and more preferably no more than 0.3 μM.

Setting [4] is: ICR mouse, oral 10 mg/kg, 2 hr, 10 mg/kg.

Consider `COCCOCc1cc(NC2CCCC2)c2[nH]c(-c3ccccc3)cc2c1` [Example 2, N-cyclopentyl-5-(2-methoxyethoxymethyl)-2-phenyl-1H-indol-7-amine], for which, in series [1] (ICR mouse, oral 10 mg/kg), the “AUClast, brain” value came out at 8319.0 ng·h/g. Moreover, in series [1] (setting [4]), the “drug concentration in brain” value is reported as 682.8 ng/mL. In series [1] (setting [4]), the “drug concentration in plasma” value was determined as 398.2 ng/mL. Moreover, in series [1] (ICR mouse, oral 10 mg/kg, plasma, read-out: area under the plasma concentration v. time curve (AUCinf)), the AUC(0-inf) was determined as 5420 ng·h/mL. Moreover, the concentration at 2 h was 683 ng/mL in series [1] (ICR, mouse, brain, po, 10 mg/kg, 2 hr, read-out: drug concentration in brain) and 398 ng/mL in series [1] (ICR, mouse, plasma, po, 10 mg/kg, 2 hr, read-out: drug concentration in plasma). Further, the concentration at 24 h in series [1] (ICR, mouse, brain, po, 10 mg/kg, 24 hr, read-out: drug concentration in brain) came out at 11.4 ng/mL; in series [1] (ICR, mouse, plasma, po, 10 mg/kg, 24 hr, read-out: drug concentration in plasma) it was 5.6 ng/mL. In addition, the concentration at 0.5 h in series [1] (ICR, mouse, plasma, po, 10 mg/kg, 0.5 hr) was found to be 334 ng/mL. In series [1] (ICR, mouse, plasma, po, 10 mg/kg, 1 hr), the concentration at 1 h came out at 337 ng/mL. This compound also registered a concentration at 4 h in series [1] (ICR, mouse, plasma, po, 10 mg/kg, 4 hr) of 672 ng/mL. The compound further showed a concentration at 8 h in series [1] (ICR, mouse, plasma, po, 10 mg/kg, 8 hr) of 232 ng/mL. Moreover, the AUC(0-t) in series [1] (ICR, mouse, plasma, po, 10 mg/kg, plasma, read-out: area under the plasma concentration v. time curve (AUClast)) is 5400 ng·h/mL; in series [1] (ICR, mouse, plasma, po, 10 mg/kg, read-out: AUClast, plasma) it was 5400 ng·h/mL. Moreover, the Kp at 2 h in series [1] (brain/plasma, ICR mouse, oral 10 mg/kg, 2 hr, read-out: brain-plasma drug concentration ratio (B/P ratio)) amounted to 1.71. In addition, the Kp at 24 h in series [1] (brain/plasma, ICR mouse, oral 10 mg/kg, 24 hr, read-out: brain-plasma drug concentration ratio (B/P ratio)) came to 2.04. Besides, the Kp in series [1] (brain/plasma, ICR mouse, oral 10 mg/kg, read-out: B/P ratio of AUClast) is 1.74. Also, the “intracellular calcium level, ΔF/F(Max−Min)” value in the series with H9C2 cells [2] (compound 0.01 μM) is “significantly decreased”; in the series with H9C2 cells [2] (compound 0.02 μM), “within normal range”. Further, in the series with H9C2 cells [3], the EC50 was at most 0.3 µM.
